Source: patent US20220132847A1, “CINNOLINIUM COMPOUNDS FOR USE IN A METHOD OF CONTROLLING UNWANTED PLANT GROWTH” (SYNGENTA CROP PROTECTION AG, priority 2019, published 2022)

What was measured:
Test in all cases: Post-emergence efficacy, glasshouse
Assay type in all cases: in vivo
[1] = system: Amaranthus palmeri (AMAPA); settings: Amaranthus palmeri, post-emergence, 312 h; Application Rate 1000 g/Ha; evaluated after 13 days; 100=total damage to plant, 0=no damage to plant; read-out: Control of weed species after post-emergence application, AMAPA
Protocol: (§1) Seeds of a variety of test species were sown in standard soil in pots. After cultivation for 14 days (post-emergence) under controlled conditions in a glasshouse (at 24/16° C., day/night; 14 hours light; 65% humidity), the plants were sprayed with an aqueous spray solution derived from the dissolution of the technical active ingredient formula (I) in a small amount of acetone and a special solvent and emulsifier mixture referred to as IF50 (11.12% Emulsogen EL360™+44.44% N-methylpyrrolidone+44.44% Dowanol DPM glycol ether), to create a 50 g/l solution which was then diluted to required concentration using 0.25% or 1% Empicol ESC70 (Sodium lauryl ether sulphate)+1% ammonium sulphate in water as diluent.
(§2) The test plants were then grown in a glasshouse under controlled conditions (at 24/16° C., day/night; 14 hours light; 65% humidity) and watered twice daily. After 13 days the test was evaluated (100=total damage to plant; 0=no damage to plant).
(§3) Ipomoea hederacea (IPOHE), Euphorbia heterophylla (EPHHL), Chenopodium album (CHEAL), Amaranthus palmeri (AMAPA), Lolium perenne (LOLPE), Digitaria sanguinalis (DIGSA), Eleusine indica (ELEIN), Echinochloa crus-galli (ECHCG), Setaria faberi (SETFA)

[2] = system: Chenopodium album (CHEAL); settings: Chenopodium album, post-emergence, 312 h; Application Rate 1000 g/Ha; evaluated after 13 days; 100=total damage to plant, 0=no damage to plant; read-out: Control of weed species after post-emergence application, CHEAL
Protocol: as §1, §2, §3

[3] = system: Digitaria sanguinalis (DIGSA); settings: Digitaria sanguinalis, post-emergence, 312 h; Application Rate 1000 g/Ha; evaluated after 13 days; 100=total damage to plant, 0=no damage to plant; read-out: Control of weed species after post-emergence application, DIGSA
Protocol: as §1, §2, §3

[4] = system: Echinochloa crus-galli (ECHCG); settings: Echinochloa crus-galli, post-emergence, 312 h; Application Rate 1000 g/Ha; evaluated after 13 days; 100=total damage to plant, 0=no damage to plant; read-out: Control of weed species after post-emergence application, ECHCG
Protocol: as §1, §2, §3

[5] = system: Eleusine indica (ELEIN); settings: Eleusine indica, post-emergence, 312 h; Application Rate 1000 g/Ha; evaluated after 13 days; 100=total damage to plant, 0=no damage to plant; read-out: Control of weed species after post-emergence application, ELEIN
Protocol: as §1, §2, §3

[6] = system: Euphorbia heterophylla (EPHHL); settings: Euphorbia heterophylla, post-emergence, 312 h; Application Rate 1000 g/Ha; evaluated after 13 days; 100=total damage to plant, 0=no damage to plant; read-out: Control of weed species after post-emergence application, EPHHL
Protocol: as §1, §2, §3

[7] = system: Ipomoea hederacea (IPOHE); settings: Ipomoea hederacea, post-emergence, 312 h; Application Rate 1000 g/Ha; evaluated after 13 days; 100=total damage to plant, 0=no damage to plant; read-out: Control of weed species after post-emergence application, IPOHE
Protocol: as §1, §2, §3

[8] = system: Lolium perenne (LOLPE); settings: Lolium perenne, post-emergence, 312 h; Application Rate 1000 g/Ha; evaluated after 13 days; 100=total damage to plant, 0=no damage to plant; read-out: Control of weed species after post-emergence application, LOLPE
Protocol: as §1, §2, §3

[9] = system: Setaria faberi (SETFA); settings: Setaria faberi, post-emergence, 312 h; Application Rate 1000 g/Ha; evaluated after 13 days; 100=total damage to plant, 0=no damage to plant; read-out: Control of weed species after post-emergence application, SETFA
Protocol: as §1, §2, §3

Row | Compound | pest or weed control at 1000 g/ha [1] | pest or weed control at 1000 g/ha [2] | pest or weed control at 1000 g/ha [3] | pest or weed control at 1000 g/ha [4] | pest or weed control at 1000 g/ha [5] | pest or weed control at 1000 g/ha [6] | pest or weed control at 1000 g/ha [7] | pest or weed control at 1000 g/ha [8] | pest or weed control at 1000 g/ha [9]
1 | O=C(O)C[n+]1cc(C(=O)[O-])c2ccccc2n1 [Compound A23, 2-(carboxymethyl)cinnolin-2-ium-4-carboxylate] | 50% | 50% | 70% | 30% | 40% | 20% | 20% | 10% | 30%
2 | CC[n+]1cc(C(=O)[N-]S(C)(=O)=O)c2ccccc2n1 [Compound A22, (2-ethylcinnolin-2-ium-4-carbonyl)-methylsulfonyl-azanide] | 70% | 70% | 80% | 50% | 70% | 60% | 90% | 60% | 70%
3 | CC[n+]1cc(P(=O)([O-])O)c2ccccc2n1 [Compound A66] | 40% | 30% | 90% | 60% | 70% | 80% | 60% | 10% | 70%
4 | CC(C)S(=O)(=O)[N-]C(=O)c1c[n+](C)nc2ccccc12 [Compound A34] | 20% | 50% | 30% | 20% | 40% | 60% | 50% | 0% | 60%
5 | C[C@@H](NC(=O)c1c[n+](C)nc2ccccc12)C(=O)O [Compound A9, (2R)-2-[(2-methylcinnolin-2-ium-4-carbonyl)amino]propanoic acid 2,2,2-trifluoroacetate] | 50% | 50% | 40% | 20% | 40% | 50% | 50% | 10% | 30%
6 | COP(=O)([O-])c1c[n+](CC(=O)NS(C)(=O)=O)nc2ccccc12 [Compound A63, [2-[2-(methanesulfonamido)-2-oxo-ethyl]cinnolin-2-ium-4-yl]-methoxy-phosphinate] | 30% | 30% | 70% | 50% | 50% | 70% | 30% | 10% | 60%
7 | C[n+]1cc(P(C)(=O)O)c2ccccc2n1 [Compound A7] |  | 100% |  | 70% | 80% | 90% | 70% | 40% | 70%
